A value given as a limit tells only on which side of the number the result lay.

The target in the assay is T1, recombinant murine Aurora A enzyme (Mus musculus, UniProt P97477).
T1 construct: hexahistidine (His6) (N); made in house; host or cells: insect cells, baculovirus (Bac-to-Bac, Invitrogen)
T1 sequence (P97477 whole entry): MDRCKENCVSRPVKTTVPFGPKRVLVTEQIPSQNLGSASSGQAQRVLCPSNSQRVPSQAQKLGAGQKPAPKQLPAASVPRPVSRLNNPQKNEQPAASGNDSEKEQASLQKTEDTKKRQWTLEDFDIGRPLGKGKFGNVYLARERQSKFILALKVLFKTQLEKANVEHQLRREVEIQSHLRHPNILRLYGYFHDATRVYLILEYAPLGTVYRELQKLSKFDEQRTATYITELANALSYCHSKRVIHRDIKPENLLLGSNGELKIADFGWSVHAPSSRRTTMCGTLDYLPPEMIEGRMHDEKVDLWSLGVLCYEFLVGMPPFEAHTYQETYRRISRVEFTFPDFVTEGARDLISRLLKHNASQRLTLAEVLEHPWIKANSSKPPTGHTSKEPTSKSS
Nature of the assay: Aurora A DELFIA Kinase Assay. Particulars: mouse Aurora A, 250 μM ATP; threshold less than or equal to 100 nM; read-out: IC50. The format is biochemical.
Turning to `CNC1CCN(C(=O)c2cc(Nc3ncc4c(n3)-c3ccc(Cl)cc3C(c3c(F)cccc3F)=NC4)ccc2Cl)CC1` [Compound I-282, 9-chloro-N-(4-chloro-3-{[4-(methylamino)piperidin-1-yl]carbonyl}phenyl)-7-(2,6-difluorophenyl)-5H-pyrimido[5,4-d][2]benzazepin-2-amine], the IC50 is at most 100 nM.
Turning to `CN(C)CCCc1cccc(Nc2ncc3c(n2)-c2ccc(Cl)cc2C(c2c(F)cccc2F)=NC3)c1` [Compound I-372, 9-chloro-7-(2,6-difluorophenyl)-N-{3-[3-(dimethylamino)propyl]phenyl}-5H-pyrimido[5,4-d][2]benzazepin-2-amine], the IC50 was at most 100 nM.
`Cc1ccc2c(c1)C(c1ccccc1F)=NCc1cnc(Nc3ccc(C(=O)N4CCN(C)CC4)cc3)nc1-2` [Compound I-14, {4-[7-(2-Fluoro-phenyl)-9-methyl-5H-benzo[c]pyrimido[4,5-e]azepin-2-ylamino]-phenyl}-(4-methyl-piperazin-1-yl)-methanone]: the half-maximal inhibitory concentration (IC50) was at most 100 nM.
With `CNC1CCCN(C(=O)c2ccc(Nc3ncc4c(n3)-c3ccc(Cl)cc3C(c3ccccc3OC)=NC4)cc2)C1` (centres unmarked) [Compound I-333, 9-chloro-7-(2-methoxyphenyl)-N-(4-{[3-(methylamino)piperidin-1-yl]carbonyl}phenyl)-5H-pyrimido[5,4-d][2]benzazepin-2-amine], the IC50 is at most 100 nM.
The value for `Cc1cc(NS(=O)(=O)c2ccc(Nc3ncc4c(n3)-c3ccc(Cl)cc3C(c3ccccc3Cl)=NC4)cc2)no1` [Compound I-69, 4-[9-Chloro-7-(2-chloro-phenyl)-5H-benzo[c]pyrimido[4,5-e]azepin-2-ylamino]-N-(5-methyl-isoxazol-3-yl)-benzenesulfonamide] was at most 100 nM; that for `COc1cccc(F)c1C1=NCc2cnc(Nc3cccc(C(=O)N4CCC(N(C)C)CC4)c3)nc2-c2ccc(Cl)cc21` [Compound I-229, 9-chloro-N-(3-{[4-(dimethylamino)piperidin-1-yl]carbonyl}phenyl)-7-(2-fluoro-6-methoxyphenyl)-5H-pyrimido[5,4-d][2]benzazepin-2-amine] was at most 100 nM; that for `O=C(c1ccc(Nc2ncc3c(n2)-c2ccc(Cl)cc2C(c2ccccc2Cl)=NC3)cc1)N1CCOCC1` [Compound I-28, {4-[9-Chloro-7-(2-chloro-phenyl)-5H-benzo[c]pyrimido[4,5-e]azepin-2-ylamino]-phenyl}-morpholin-4-yl-methanone] was at most 100 nM.
The value for `CN1CCN(C(=O)Cc2cccc(Nc3ncc4c(n3)-c3ccc(Cl)cc3C(c3ccccc3F)=NC4)c2)CC1` [Compound I-15, 2-{3-[9-Chloro-7-(2-fluoro-phenyl)-5H-benzo[c]pyrimido[4,5-e]azepin-2-ylamino]-phenyl}-1-(4-methyl-piperazin-1-yl)-ethanone] was at most 100 nM.

Usually IC50 stands for the concentration needed to halve the response being measured.
